From patent US20120065228A1, “COMPOSITIONS AND METHODS FOR TREATING, CONTROLLING, REDUCING, OR AMELIORATING OCULAR INFLAMMATORY WITH LOWER RISK OF INCREASED INTRAOCULAR PRESSURE” (priority 2007, published 2012)

Tested on: intraocular pressure (IOP) in New Zealand White rabbits
Experiment: Intraocular pressure in New Zealand White rabbits, topical dosing four times daily
Format: in vivo
Method: On Days 1-31, animals received daily topical doses of the appropriate test article into the right eye. Animals were dosed four times per day, with doses administered 2 hours apart. Doses were administered using a calibrated 50-μL pipette. The eyelids were held close for 10 seconds immediately following dosing. The time of each dose administration was recorded.
Intraocular pressure (“IOP”) was determined for both eyes of each animal on Days 3, 5, 10, 12, 16, 18, 22, 24, 26, 30, and 32. LOP was evaluated with a Medtronic Solan, Model 30 classic pneumatonometer. Proparacaine hydrochloride 0.5% (1 drop) was delivered to each eye prior to IOP measurement. IOP was measured on Monday, Wednesday, and Friday of each week. A two-point diurnal curve was established: IOP was recorded at 8 a.m. and 12 p.m. on Day 3, and at 8 a.m. and 2 p.m. on later days, with a ±1 hour range for each of these times. The time of the measurements was recorded.
Descriptive statistics were prepared for IOP data of each treatment group (left and right eyes separately) at each measurement interval. The statistics included the number of observations (“N”), mean, standard deviation (“STD”), and standard error (“SEM”). Statistical analyses were conducted on IOP results using Statistical Analysis Systems (SAS Institute, Inc., Cary, N.C., V8.0). Parameters were evaluated using analysis of variance/GLM Procedure followed by Tukey's Standardized Range Test (Tukey, 1985) for post hoc comparisons of group means. The level of significance was set at a probability of p<0.05 for all statistical procedures. Group IOP means were compared at each interval, with left and right eyes compared separately.
IOP data for the following six animals were excluded from group statistics: Group A, Nos. 3081, 3037, 3068, and 3011; Group C, No. 3034; and Group E, No. 3084.

SMILES: Cc1ccc2c(NCC(O)(CC(C)(C)c3cc(F)cc4c3OCC4)C(F)(F)F)cccc2n1 (centres unmarked) [BOL-303242-X]
- Intraocular Pressure, MEAN (treated right eyes, A.M. readings, Day 3, 10 mg/g (Group B)): 22.7 mmHg
- Intraocular Pressure, MEAN (treated right eyes, A.M. readings, Day 5, 1 mg/g (Group D)): 24.7 mmHg
- Intraocular Pressure, MEAN (treated right eyes, A.M. readings, Day 5, 5 mg/g (Group C)): 24.7 mmHg
- Intraocular Pressure, MEAN (treated right eyes, A.M. readings, Day 5, 10 mg/g (Group B)): 23.8 mmHg
- Intraocular Pressure, MEAN (treated right eyes, A.M. readings, Day 10, 1 mg/g (Group D)): 24.8 mmHg
- Intraocular Pressure, MEAN (treated right eyes, A.M. readings, Day 10, 5 mg/g (Group C)): 25.2 mmHg
- Intraocular Pressure, MEAN (treated right eyes, A.M. readings, Day 10, 10 mg/g (Group B)): 24.5 mmHg
- Intraocular Pressure, MEAN (treated right eyes, A.M. readings, Day 12, 1 mg/g (Group D)): 23.4 mmHg
- Intraocular Pressure, MEAN (treated right eyes, A.M. readings, Day 12, 5 mg/g (Group C)): 25.0 mmHg
- Intraocular Pressure, MEAN (treated right eyes, A.M. readings, Day 12, 10 mg/g (Group B)): 23.9 mmHg
- Intraocular Pressure, MEAN (treated right eyes, A.M. readings, Day 16, 1 mg/g (Group D)): 22.1 mmHg
- Intraocular Pressure, MEAN (treated right eyes, A.M. readings, Day 16, 5 mg/g (Group C)): 24.3 mmHg
- Intraocular Pressure, MEAN (treated right eyes, A.M. readings, Day 16, 10 mg/g (Group B)): 23.4 mmHg
- Intraocular Pressure, MEAN (treated right eyes, A.M. readings, Day 18, 1 mg/g (Group D)): 23.7 mmHg
- Intraocular Pressure, MEAN (treated right eyes, A.M. readings, Day 18, 5 mg/g (Group C)): 23.9 mmHg
- Intraocular Pressure, MEAN (treated right eyes, A.M. readings, Day 18, 10 mg/g (Group B)): 22.3 mmHg
- Intraocular Pressure, MEAN (treated right eyes, A.M. readings, Day 22, 1 mg/g (Group D)): 23.2 mmHg
- Intraocular Pressure, MEAN (treated right eyes, A.M. readings, Day 22, 5 mg/g (Group C)): 22.4 mmHg
- Intraocular Pressure, MEAN (treated right eyes, A.M. readings, Day 22, 10 mg/g (Group B)): 22.4 mmHg
- Intraocular Pressure, MEAN (treated right eyes, A.M. readings, Day 24, 1 mg/g (Group D)): 22.1 mmHg
- Intraocular Pressure, MEAN (treated right eyes, A.M. readings, Day 24, 5 mg/g (Group C)): 23.8 mmHg
- Intraocular Pressure, MEAN (treated right eyes, A.M. readings, Day 24, 10 mg/g (Group B)): 21.2 mmHg
- Intraocular Pressure, MEAN (treated right eyes, A.M. readings, Day 26, 1 mg/g (Group D)): 23.1 mmHg
- Intraocular Pressure, MEAN (treated right eyes, A.M. readings, Day 26, 5 mg/g (Group C)): 22.1 mmHg
- Intraocular Pressure, MEAN (treated right eyes, A.M. readings, Day 26, 10 mg/g (Group B)): 21.8 mmHg
- Intraocular Pressure, MEAN (treated right eyes, A.M. readings, Day 30, 1 mg/g (Group D)): 24.2 mmHg
- Intraocular Pressure, MEAN (treated right eyes, A.M. readings, Day 30, 5 mg/g (Group C)): 22.9 mmHg
- Intraocular Pressure, MEAN (treated right eyes, A.M. readings, Day 30, 10 mg/g (Group B)): 22.7 mmHg
- Intraocular Pressure, MEAN (treated right eyes, A.M. readings, Day 32, 1 mg/g (Group D)): 24.9 mmHg
- Intraocular Pressure, MEAN (treated right eyes, A.M. readings, Day 32, 5 mg/g (Group C)): 23.4 mmHg
- Intraocular Pressure, MEAN (treated right eyes, A.M. readings, Day 32, 10 mg/g (Group B)): 23.9 mmHg
- Intraocular Pressure, MEAN (treated right eyes, A.M. readings, Pre-Study, 1 mg/g (Group D)): 24.4 mmHg
- Intraocular Pressure, MEAN (treated right eyes, A.M. readings, Pre-Study, 5 mg/g (Group C)): 24.8 mmHg
- Intraocular Pressure, MEAN (treated right eyes, A.M. readings, Pre-Study, 10 mg/g (Group B)): 24.0 mmHg
- Intraocular Pressure, MEAN (untreated left eyes, P.M. readings, Day 3, 1 mg/g (Group D)): 25.0 mmHg
- Intraocular Pressure, MEAN (untreated left eyes, P.M. readings, Day 3, 5 mg/g (Group C)): 23.9 mmHg
- Intraocular Pressure, MEAN (untreated left eyes, P.M. readings, Day 3, 10 mg/g (Group B)): 23.3 mmHg
- Intraocular Pressure, MEAN (untreated left eyes, P.M. readings, Day 5, 1 mg/g (Group D)): 24.7 mmHg
- Intraocular Pressure, MEAN (untreated left eyes, P.M. readings, Day 5, 5 mg/g (Group C)): 24.8 mmHg
- Intraocular Pressure, MEAN (untreated left eyes, P.M. readings, Day 5, 10 mg/g (Group B)): 25.2 mmHg
- Intraocular Pressure, MEAN (untreated left eyes, P.M. readings, Day 10, 1 mg/g (Group D)): 24.9 mmHg
- Intraocular Pressure, MEAN (untreated left eyes, P.M. readings, Day 10, 5 mg/g (Group C)): 24.6 mmHg
- Intraocular Pressure, MEAN (untreated left eyes, P.M. readings, Day 10, 10 mg/g (Group B)): 23.5 mmHg
- Intraocular Pressure, MEAN (untreated left eyes, P.M. readings, Day 12, 1 mg/g (Group D)): 23.7 mmHg
- Intraocular Pressure, MEAN (untreated left eyes, P.M. readings, Day 12, 5 mg/g (Group C)): 23.3 mmHg
- Intraocular Pressure, MEAN (untreated left eyes, P.M. readings, Day 12, 10 mg/g (Group B)): 24.1 mmHg
- Intraocular Pressure, MEAN (untreated left eyes, P.M. readings, Day 16, 1 mg/g (Group D)): 21.9 mmHg
- Intraocular Pressure, MEAN (untreated left eyes, P.M. readings, Day 16, 5 mg/g (Group C)): 20.4 mmHg
- Intraocular Pressure, MEAN (untreated left eyes, P.M. readings, Day 16, 10 mg/g (Group B)): 21.4 mmHg
- Intraocular Pressure, MEAN (untreated left eyes, P.M. readings, Day 18, 1 mg/g (Group D)): 22.7 mmHg
- Intraocular Pressure, MEAN (untreated left eyes, P.M. readings, Day 18, 5 mg/g (Group C)): 21.9 mmHg
- Intraocular Pressure, MEAN (untreated left eyes, P.M. readings, Day 18, 10 mg/g (Group B)): 22.1 mmHg
- Intraocular Pressure, MEAN (untreated left eyes, P.M. readings, Day 22, 1 mg/g (Group D)): 22.1 mmHg
- Intraocular Pressure, MEAN (untreated left eyes, P.M. readings, Day 22, 5 mg/g (Group C)): 22.1 mmHg
- Intraocular Pressure, MEAN (untreated left eyes, P.M. readings, Day 22, 10 mg/g (Group B)): 22.6 mmHg
- Intraocular Pressure, MEAN (untreated left eyes, P.M. readings, Day 24, 1 mg/g (Group D)): 22.9 mmHg
- Intraocular Pressure, MEAN (untreated left eyes, P.M. readings, Day 24, 5 mg/g (Group C)): 22.2 mmHg
- Intraocular Pressure, MEAN (untreated left eyes, P.M. readings, Day 24, 10 mg/g (Group B)): 22.8 mmHg
- Intraocular Pressure, MEAN (untreated left eyes, P.M. readings, Day 26, 1 mg/g (Group D)): 22.1 mmHg
- Intraocular Pressure, MEAN (untreated left eyes, P.M. readings, Day 26, 5 mg/g (Group C)): 22.3 mmHg
- Intraocular Pressure, MEAN (untreated left eyes, P.M. readings, Day 26, 10 mg/g (Group B)): 21.4 mmHg
- Intraocular Pressure, MEAN (untreated left eyes, P.M. readings, Day 30, 10 mg/g (Group B)): 21.7 mmHg
